Key:
[1] = xn = mol fraction of the nth substance listed; details: 101.3 kPa, Liquid
[2] = excess molar enthalpy (molar enthalpy of mixing); xn = mol fraction of the nth substance listed; details: 101.3 kPa, Liquid

C=C1CCC2CC1C2(C)C (stereo not drawn) [β-pinene] + CCO
Details | excess molar enthalpy, [2] [kcal/mol] | mass density, [1] [kg/m3] | speed of sound, [1] [m/s]
283.15 K, x1 = 0.0507 | – | 807.27 | 1209.5
283.15 K, x1 = 0.071 | 0.0261 | – | –
283.15 K, x1 = 0.1012 | – | 815.62 | 1222.5
283.15 K, x1 = 0.142 | 0.0492 | – | –
283.15 K, x1 = 0.2046 | – | 829.52 | 1246.3
283.15 K, x1 = 0.269 | 0.0798 | – | –
283.15 K, x1 = 0.3015 | – | 839.85 | 1265.4
283.15 K, x1 = 0.394 | 0.0997 | – | –
283.15 K, x1 = 0.4042 | – | 848.66 | 1282.4
283.15 K, x1 = 0.496 | 0.109 | – | –
283.15 K, x1 = 0.5145 | – | 856.44 | 1298.8
283.15 K, x1 = 0.599 | 0.117 | – | –
283.15 K, x1 = 0.6019 | – | 861.6 | 1309.4
283.15 K, x1 = 0.689 | 0.117 | – | –
283.15 K, x1 = 0.6981 | – | 866.52 | 1320.5
283.15 K, x1 = 0.773 | 0.115 | – | –
283.15 K, x1 = 0.7932 | – | 870.77 | 1330.4
283.15 K, x1 = 0.864 | 0.105 | – | –
283.15 K, x1 = 0.8762 | – | 874.13 | 1339.3
283.15 K, x1 = 0.93 | 0.0844 | – | –
283.15 K, x1 = 0.9355 | – | 876.41 | 1345.8
283.15 K, x1 = 0.964 | 0.0664 | – | –
283.15 K, x1 = 0.9799 | – | 878.19 | 1353.4
298.15 K, x1 = 0.0502 | – | 794.53 | 1156.2
298.15 K, x1 = 0.071 | 0.0349 | – | –
298.15 K, x1 = 0.1022 | – | 803.02 | 1168.9
298.15 K, x1 = 0.142 | 0.0645 | – | –
298.15 K, x1 = 0.1999 | – | 816.23 | 1189.9
298.15 K, x1 = 0.269 | 0.104 | – | –
298.15 K, x1 = 0.3045 | – | 827.43 | 1209
298.15 K, x1 = 0.394 | 0.129 | – | –
298.15 K, x1 = 0.4019 | – | 835.85 | 1224.1
298.15 K, x1 = 0.496 | 0.14 | – | –
298.15 K, x1 = 0.5 | – | 842.91 | 1237.4
298.15 K, x1 = 0.599 | 0.145 | – | –
298.15 K, x1 = 0.6017 | – | 849.06 | 1249.8
298.15 K, x1 = 0.689 | 0.145 | – | –
298.15 K, x1 = 0.6999 | – | 854.18 | 1260.6
298.15 K, x1 = 0.7626 | – | 857.17 | 1264.9
298.15 K, x1 = 0.773 | 0.139 | – | –
298.15 K, x1 = 0.864 | 0.122 | – | –
298.15 K, x1 = 0.89 | – | 862.45 | 1280.4
298.15 K, x1 = 0.93 | 0.0932 | – | –
298.15 K, x1 = 0.9415 | – | 864.49 | 1286.3
298.15 K, x1 = 0.964 | 0.0777 | – | –
298.15 K, x1 = 0.98 | – | 866.07 | 1294.5
313.15 K, x1 = 0.052 | – | 782.17 | 1104.8
313.15 K, x1 = 0.071 | 0.0433 | – | –
313.15 K, x1 = 0.1041 | – | 790.76 | 1116.6
313.15 K, x1 = 0.142 | 0.0813 | – | –
313.15 K, x1 = 0.2043 | – | 804.04 | 1135.7
313.15 K, x1 = 0.269 | 0.135 | – | –
313.15 K, x1 = 0.3029 | – | 814.57 | 1151.7
313.15 K, x1 = 0.394 | 0.171 | – | –
313.15 K, x1 = 0.4046 | – | 823.44 | 1167
313.15 K, x1 = 0.496 | 0.19 | – | –
313.15 K, x1 = 0.4981 | – | 830.17 | 1178.5
313.15 K, x1 = 0.599 | 0.2 | – | –
313.15 K, x1 = 0.6014 | – | 836.54 | 1189.8
313.15 K, x1 = 0.689 | 0.199 | – | –
313.15 K, x1 = 0.6979 | – | 841.7 | 1198.7
313.15 K, x1 = 0.773 | 0.191 | – | –
313.15 K, x1 = 0.809 | – | 846.76 | 1207
313.15 K, x1 = 0.864 | 0.167 | – | –
313.15 K, x1 = 0.8844 | – | 850.12 | 1213.6
313.15 K, x1 = 0.93 | 0.137 | – | –
313.15 K, x1 = 0.9356 | – | 852.26 | 1221.9
313.15 K, x1 = 0.964 | 0.0944 | – | –
313.15 K, x1 = 0.985 | – | 854.6 | 1228.9

C=C1CCC2CC1C2(C)C (stereo not drawn) [β-pinene] + CCCO
Details | excess molar enthalpy [kcal/mol] | mass density [kg/m3] | speed of sound [m/s]
[1], 283.15 K, x1 = 0.0505 | – | 818.13 | 1265.6
[1], 283.15 K, x1 = 0.1024 | – | 824.2 | 1272.7
[1], 283.15 K, x1 = 0.2046 | – | 834.58 | 1285.3
[1], 283.15 K, x1 = 0.3046 | – | 843.01 | 1296
[1], 283.15 K, x1 = 0.405 | – | 850.35 | 1305.5
[1], 283.15 K, x1 = 0.5035 | – | 856.46 | 1313.7
[1], 283.15 K, x1 = 0.599 | – | 861.68 | 1321.2
[1], 283.15 K, x1 = 0.7026 | – | 866.65 | 1328.8
[1], 283.15 K, x1 = 0.8026 | – | 871.06 | 1336.3
[1], 283.15 K, x1 = 0.8834 | – | 874.33 | 1342.6
[1], 283.15 K, x1 = 0.9488 | – | – | 1348.5
[1], 283.15 K, x1 = 0.9489 | – | 876.85 | –
[1], 283.15 K, x1 = 0.9812 | – | 878.27 | 1352.9
[1], 298.15 K, x1 = 0.053 | – | 806.47 | 1212.9
[1], 298.15 K, x1 = 0.1036 | – | 812.35 | 1219
[1], 298.15 K, x1 = 0.2039 | – | 822.4 | 1229.7
[1], 298.15 K, x1 = 0.3038 | – | 830.81 | 1239.1
[1], 298.15 K, x1 = 0.3966 | – | 837.49 | 1246.9
[1], 298.15 K, x1 = 0.5122 | – | 844.67 | 1255.7
[1], 298.15 K, x1 = 0.6005 | – | 849.44 | 1261.8
[1], 298.15 K, x1 = 0.699 | – | 854.2 | 1268.6
[1], 298.15 K, x1 = 0.793 | – | – | 1275.4
[1], 298.15 K, x1 = 0.7931 | – | 858.43 | –
[1], 298.15 K, x1 = 0.8937 | – | 862.59 | 1283.3
[1], 298.15 K, x1 = 0.9426 | – | 864.54 | 1287.9
[1], 298.15 K, x1 = 0.9834 | – | 866.31 | 1293.6
[1], 313.15 K, x1 = 0.0514 | – | 794.24 | 1160.5
[1], 313.15 K, x1 = 0.1021 | – | 800.04 | 1165.7
[1], 313.15 K, x1 = 0.2032 | – | 810.14 | 1175
[1], 313.15 K, x1 = 0.307 | – | 818.69 | 1183.4
[1], 313.15 K, x1 = 0.405 | – | 825.65 | 1190.4
[1], 313.15 K, x1 = 0.5007 | – | 831.57 | 1196.5
[1], 313.15 K, x1 = 0.6004 | – | 837.06 | 1202
[1], 313.15 K, x1 = 0.7051 | – | 842.2 | 1206.4
[1], 313.15 K, x1 = 0.7928 | – | 846.14 | 1213.3
[1], 313.15 K, x1 = 0.8931 | – | 850.44 | 1222.1
[1], 313.15 K, x1 = 0.9407 | – | 852.42 | 1225.6
[1], 313.15 K, x1 = 0.9786 | – | 854.11 | 1228.9
[2], 283.15 K, x1 = 0.067 | 0.0146 | – | –
[2], 283.15 K, x1 = 0.135 | 0.0304 | – | –
[2], 283.15 K, x1 = 0.263 | 0.0564 | – | –
[2], 283.15 K, x1 = 0.38 | 0.0755 | – | –
[2], 283.15 K, x1 = 0.488 | 0.0891 | – | –
[2], 283.15 K, x1 = 0.585 | 0.0963 | – | –
[2], 283.15 K, x1 = 0.677 | 0.0994 | – | –
[2], 283.15 K, x1 = 0.764 | 0.097 | – | –
[2], 283.15 K, x1 = 0.855 | 0.086 | – | –
[2], 283.15 K, x1 = 0.926 | 0.0674 | – | –
[2], 283.15 K, x1 = 0.97 | 0.0473 | – | –
[2], 298.15 K, x1 = 0.067 | 0.0213 | – | –
[2], 298.15 K, x1 = 0.135 | 0.0423 | – | –
[2], 298.15 K, x1 = 0.263 | 0.0803 | – | –
[2], 298.15 K, x1 = 0.38 | 0.109 | – | –
[2], 298.15 K, x1 = 0.488 | 0.129 | – | –
[2], 298.15 K, x1 = 0.585 | 0.14 | – | –
[2], 298.15 K, x1 = 0.677 | 0.147 | – | –
[2], 298.15 K, x1 = 0.764 | 0.14 | – | –
[2], 298.15 K, x1 = 0.855 | 0.127 | – | –
[2], 298.15 K, x1 = 0.926 | 0.0978 | – | –
[2], 298.15 K, x1 = 0.97 | 0.0626 | – | –
[2], 313.15 K, x1 = 0.067 | 0.0277 | – | –
[2], 313.15 K, x1 = 0.135 | 0.0581 | – | –
[2], 313.15 K, x1 = 0.263 | 0.11 | – | –
[2], 313.15 K, x1 = 0.38 | 0.15 | – | –
[2], 313.15 K, x1 = 0.488 | 0.177 | – | –
[2], 313.15 K, x1 = 0.585 | 0.192 | – | –
[2], 313.15 K, x1 = 0.677 | 0.196 | – | –
[2], 313.15 K, x1 = 0.764 | 0.188 | – | –
[2], 313.15 K, x1 = 0.855 | 0.163 | – | –
[2], 313.15 K, x1 = 0.926 | 0.124 | – | –
[2], 313.15 K, x1 = 0.97 | 0.0791 | – | –
